# From patent US7285701B2, “Cyanobacterial nucleic acid fragments encoding proteins useful for controlling plant traits via nuclear or plastome transformation” (BASF Plant Science GmbH, priority 2001, dated 2007)
# Tests used:
# [1] = system: E. coli M1262 expressing the cyanobacterial ahas gene; experiment: Growth on minimal media of E. coli M1262 expressing the cyanobacterial ahas gene; assay type: cell-based
# Source text: To confirm that these plasmids carry functional AHAS sequences, plasmid DNA from each of the ten rescued colonies was transformed into the E. coli strain M1262. (leuB6, ilv1614, ilvH612, λ^−, relA1, spoT1, ilvB619, ilvG603, ilfG605(am), thi-1) (Genetics Stock Center, Yale University). This strain of E. coli is lacking in AHAS. […] The ahas gene can therefore be used for achieving herbicide tolerance in crops by transformation into the nuclear or plastidic genome.
# Synechocystis PCC6803 = experiment: In vivo growth in BG-11 media with commercial herbicides; assay type: cell-based; conditions: 100 μM, one week of culture in BG-11 media
# Experimental: (§1) In vivo resistance of cyanobacteria to PURSUIT® imazethapyr and OUST® sulfometuron methyl. As a preliminary matter, Synechocystis PCC6803 and Anabaenia PCC7120 were tested for susceptibility to PURSUIT® imazethapyr and OUST® sulfometuron methyl. AHAS genes which are resistant to these herbicides are excellent candidates for transformation in plant plastomes and nuclear genomes. Such transformants can be used in a weed control strategy using a combination of transgenic herbicide resistant crops and herbicides.
# (§2) In vivo testing of Synechocystis PCC6803 and Anabaena PCC7120 was done by culturing the organisms in varying concentrations of the commercial herbicides. […] For relative comparison purposes a concentration of 1 μM PURSUIT® imazethapyr in agar media is lethal to Arabidopsis plants.
# Anabaena PCC7120 = experiment: as above; assay type: cell-based; conditions: 100 μM, one week of culture in BG-11 media
# Experimental: as §1, §2
# Arabidopsis plants = experiment: Lethality to Arabidopsis plants in agar media; assay type: in vivo
# Experimental: as §2
# Anabaena AHAS = experiment: In vitro AHAS assay; assay type: biochemical, Anabaena PCC7120; conditions: 100 μM
# Experimental: (§3) AHAS is the target site of both PURSUIT® imazethapyr and OUST® sulfometuron methyl herbicides. To determine if resistance to the herbicides is due to a natural resistance to inhibition of the acetohydroxyacid synthase enzymes from the cyanobacteria, or if it is due to alternative mechanisms (e.g. lack of entry into the cell), the in vitro activity of the AHAS enzyme in the presence of the herbicides was tested.
# (§4) AHAS assays were performed with slight modification as described by Singh et. al (Singh B K, Stidham M A, Shaner D L, 1988, Assay for acetohydroxyacid synthase from plants. Anal Biochem 171: 173-179).
# (§5) Synechocystis PCC6803 and Anabaena PCC7120 were cultured in 1.5 L of BG-11 media. Cells were collected by centrifuge and stored frozen at −80° C. Frozen cells were thawed and placed in a 30 mL Bead Beater cell disruptor chamber (BioSpec Corp Bartlesville, Okla.). Seven mL of acid washed sand was added. The chamber was filled with 2× ASHA assay buffer, consisting of 100 mM HEPES pH7.0, 200 mM pyruvate, 20 mM MgCl2, 2 mM TPP (Thiamine pyrophosphate) and 100 μM FAD (flavin adenine dinucleotide).
# (§6) The Bead Beater cell disruptor was packed in ice and turned on for 10 seconds, followed by cooling for 3 minutes. This cycle was repeated five times. The extract was transferred into a centrifuge tube, and spun in a Beckman SA20 (Beckman, Fullerton, Calif.) rotor for 15 minutes at 17,000 rpms. […]
# Synechocystis AHAS = experiment: In vitro AHAS assay; assay type: biochemical, Synechocystis PCC6803; conditions: 100 μM
# Experimental: as §3, §4, §5, §6
# Wild type (W-38) tobacco = experiment: PURSUIT imazethapyr spray test, wild type tobacco; assay type: in vivo; conditions: 18 g/ha, 5 weeks after the test
# Experimental: (§7) Observations and photos (FIG. 8) of the PURSUIT® imazethapyr spray test were taken 5 weeks after the test was conducted. […] Leaves assumed a thin, spiny form.
# [2] = system: p111 and p112 transplastomic tobacco lines; experiment: PURSUIT imazethapyr spray test, p111 and p112 lines; assay type: in vivo; conditions: 18 g/ha, 5 weeks after the test
# Experimental: as §7
# [3] = system: AHAS enzyme of pACBC222 line G-981208-1.1; experiment: AHAS enzyme assay of transplastomic tobacco line; assay type: biochemical; conditions: line sprayed with 18 g/ha PURSUIT imazethapyr; assay in the presence of the herbicide
# p116 line G-981208-1.1 = experiment: PURSUIT imazethapyr spray test, p116 line; assay type: in vivo, tobacco
# Experimental: as §7
compound,measurement,setting,value
"CCc1cnc(C2=NC(C)(C(C)C)C(=O)N2)c(C(=O)O)c1 (stereo not shown) [PURSUIT® imazethapyr, imazethapyr]",growth on minimal media in the presence of the herbicide,[1],capable of growing
same,inhibition of growth,Synechocystis PCC6803,No inhibition of growth
same,inhibition of growth,Anabaena PCC7120,No inhibition of growth
same,concentration lethal to Arabidopsis plants,Arabidopsis plants,1 µM
same,inhibition of AHAS enzyme,Anabaena AHAS,No significant inhibition
same,inhibition of AHAS enzyme,Synechocystis AHAS,No significant inhibition
same,spray test observation,Wild type (W-38) tobacco,wide-spread leaf necrosis and stunting of growth
same,spray test observation,[2],wide-spread leaf necrosis and stunting of growth
same,increase in AHAS enzyme resistance compared with AHAS enzyme from unsprayed wild type tobacco,[3],~20%
same,growth,"p116 line G-981208-1.1; 18 g/ha, 5 weeks after the test",uninhibited
same,leaf damage,"p116 line G-981208-1.1; 18 or 35 g/ha, 5 weeks after the test",no visible leaf damage
same,growth,"p116 line G-981208-1.1; 35 g/ha, 5 weeks after the test",slight stunting
same,effect on new shoots and morphology,"p116 line G-981208-1.1; p116 line, prolific shooting and morphological abnormalities in new shoots",strong growth regulator
